Source: US20060034823A1, “Method of production and use of crotoxin as an analgesic” (priority 2004, published 2006)
Values joined by “and” are separate entries in the source; they are usually repeats but may differ in a detail not shown here. Identical values can stand only once. Counter-ions that a name gives are not always drawn. Like-named read-outs stand apart in the source and are kept apart here.

Key:
[1] = in vivo; cited from earlier work
[2] = tested on: pain response in mice induced by Hot Plate; assay type: in vivo, Kunming mice; conditions: for Time lapse before pain response: Dolantin 40000 μg/kg ip; for Pain threshold, After drug administration: crotoxin 44.3 μg·kg−1; for Pain threshold, Baseline: before drugs; for Pain thresholds: Acetylsalicylic acid 400 mg·kg−1
animal models of pain = assay: Crotamine in animal models of pain; assay type: in vivo; conditions: applicant's own studies vs published observations
From the text: The analgesic effect of snake venom proteins has been known since antiquity and several authors have pointed out the efficiency of the administration of crude cobra or rattlesnake venoms in the treatment of trigeminal neuralgias, tabetic and pain caused by tumors. In the cases of tumoral pains, the patients could be maintained without the administration of morphine in 70% of the cases. Obviously, at the time, crude venoms were employed without even an adequate knowledge of the source or mechanism. Sometimes venoms from cobras captured in India or South Africa were employed indistinctly (see, Haast, U.S. Pat. No. 4,341,762). […] With respect to crotamine, it was assumed that this represented the anti-nociceptive component of Crotalus durissus terrificus venom.

[3] = tested on: acetic acid writhing response in mice; assay: animal or person; assay type: in vivo, Kunming mice
Procedure: In the hot-plate test, a animal is positioned on a hot plate and is exposed to a standard heat source, and the time that the animal voluntarily endures the heat, prior to licking its paws, is recorded. In the acid-writhing test, the animal is injected into the intraperitoneal cavity and results in a writhing response. For the tail-flick test the animal's tail is subjected to heat or electrical stimulus and the time taken for the animal to remove its tail away from the noxious stimulus is recorded. Analgesics, particularly opioid analgesics, will prolong these times relative to controls.
The mice were randomly divided into 5 groups (n=10 in each group): saline control, acetylsalicylic acid 400 mg/kg^−1, crotoxin 66.5, 44.3, or 29.5 mcg.kg^−1 −1. Pain threshold was measured 3 h after drug administration.
The mice were randomly divided into 2 groups (n=10 in each group): saline control and crotoxin 0.3 mcg.kg^−1 −1. The effects of crotoxin on pain threshold were measured 1 hour after crotoxin or saline administration.
The mice were randomly divided into 4 groups (n=10 in each group): saline control, crotoxin 44.3 mcg.kg^−1 −1, acetylsalicylic acid (Ace) 300 mg/kg^−1, and crotoxin+acetylsalicylic acid. Acetylsalicylic acid 300 mg/kg^−1 (im) and crotoxin 44.3 mcg.kg^−1 −1 (im) were administrated at the same time. Pain threshold was determined 2 h after crotoxin administration.

CCOC(=O)C1(c2ccccc2)CCN(C)CC1 [Dolantin, Meperidine hydrochloride]
analgesic potency relative to morphine [1]: one-tenth as potent an analgesic as morphine
duration [1]: 2 to 4 h
onset of activity [1]: 10 to 45 min
Time lapse before pain response ([2]; 30 min after drug, hydrochloride): 56 s and 56.14 s
Time lapse before pain response ([2]; 60 min after drug): 55.49 s
Time lapse before pain response ([2]; 90 min after drug, hydrochloride): 36 s and 36.36 s
Time lapse before pain response ([2]; 120 min after drug, hydrochloride): 34 s and 34.03 s
Time lapse before pain response ([2]; Pre-drug, hydrochloride): 13.2 s and 13.20 s

C=CCN1CC[C@]23c4c5ccc(O)c4O[C@H]2C(=O)CC[C@@]3(O)[C@H]1C5 [Naloxone, Naloxone hydrochloride]
Pain threshold, After drug administration ([2]; naloxone 3 mg·kg−1 or NS (i.p.) 2.5 hours after crotoxin, determined 30 minutes after naloxone): 19.04 ± 4.88 s
effect of naloxone alone on the pain threshold ([2]; naloxone 3 mg/kg (ip)): no significant influence
effect on the analgesia induced by crotoxin ([2]; naloxone (ip)): had no effect
Pain threshold, Baseline ([2]; naloxone study): 16.97 ± 3.64 s

CN1[C@@H]2CC[C@H]1C[C@@H](OC(=O)C(CO)c1ccccc1)C2 (stereo partly shown) [Atropine, atropine]
effect of atropine alone on the pain threshold ([2]; atropine 0.5 mg/kg (im)): no significant effect
Pain threshold, Baseline ([2]; atropine study): 16.87 ± 3.10 s
Pain threshold, After drug administration ([2]; atropine 0.5 mg·kg−1 or NS (im) 1.5 h after crotoxin, determined 1.5 h after atropine): 18.46 ± 3.25 s

crotamine (YKQCHKKGGHCFPKEKICLPPSSDFGKMDCRWRWKCCKKGSG; UniProt Q9PWF3 23-64, looked up)
antinociceptive properties (animal models of pain): failed to confirm these published observations

CC(=O)Oc1ccccc1C(=O)O [Acetylsalicylic acid, acetylsalicylic acid]
The number of writhings after administration ([3]; Acetylsalicylic acid 400 mg·kg−1, 3 h after drug administration): 8.80 ± 6.36 times/10 min
inhibition at 400 mg/kg ([3]; Mus musculus, 3 h, read-out: Percentage inhibition compared with control group): 70.1%
effect on the analgesic effects of crotoxin ([3]; acetylsalicylic acid 300 mg/kg (ip)): significantly enhanced
analgesic effect, acetylsalicylic acid study ([3]; acetylsalicylic acid 300 mg/kg, crotoxin 44.3 mcg/kg, given at the same time): significant analgesic effects
The number of writhings ([3]; crotoxin 44.3 μg·kg−1 and acetylsalicylic acid (table: 0.3 mg·kg−1; text: 300 mg/kg) given at the same time, 2 h after crotoxin): 12.13 ± 9.04 times/10 min
Pain thresholds ([2]; 1 h after administration): 28.12 ± 6.95 s
Pain thresholds ([2]; 2 h after administration): 24.50 ± 14.14 s
Pain thresholds ([2]; 3 h after administration): 26.22 ± 14.32 s
Pain thresholds ([2]; Baseline): 17.36 ± 2.72 s
